In ChEMBL document CHEMBL4004849, “Tetrazolylmethyl quinolines: Design, docking studies, synthesis, anticancer and antifungal analyses” (2017):
In brackets after ≈: the same amount, converted by molar mass. Activity calls are given as the source filed them. The rule behind the calls is not given here.

Assays:
Type in all cases: functional
[1] = system: UACC-62; test: Growth inhibition of human UACC62 cells at 10^-5 M incubated for 48 hrs by sulforhodamine B assay relative to control
[2] = system: OVCAR-5; test: Growth inhibition of human OVCAR5 cells at 10^-5 M incubated for 48 hrs by sulforhodamine B assay relative to control
[3] = system: SNB-19; test: Growth inhibition of human SNB19 cells at 10^-5 M incubated for 48 hrs by sulforhodamine B assay relative to control
[4] = system: SK-MEL-5; test: Growth inhibition of human SK-MEL-5 cells at 10^-5 M incubated for 48 hrs by sulforhodamine B assay relative to control
[5] = system: SK-OV-3; test: Growth inhibition of human SKOV3 cells at 10^-5 M incubated for 48 hrs by sulforhodamine B assay relative to control
[6] = system: MDA-MB-468; test: Growth inhibition of human MDA-MB-468 cells at 10^-5 M incubated for 48 hrs by sulforhodamine B assay relative to control
[7] = system: OVCAR-8; test: Growth inhibition of human OVCAR8 cells at 10^-5 M incubated for 48 hrs by sulforhodamine B assay relative to control
[8] = system: SN12C; test: Growth inhibition of human SN12C cells at 10^-5 M incubated for 48 hrs by sulforhodamine B assay relative to control
[9] = system: Malme-3M; test: Growth inhibition of human MALME-3M cells at 10^-5 M incubated for 48 hrs by sulforhodamine B assay relative to control
[10] = system: MOLT-4; test: Growth inhibition of human MOLT4 cells at 10^-5 M incubated for 48 hrs by sulforhodamine B assay relative to control
[11] = system: HT-29; test: Growth inhibition of human HT-29 cells at 10^-5 M incubated for 48 hrs by sulforhodamine B assay relative to control
[12] = system: NCI-H460; test: Growth inhibition of human NCI-H460 cells at 10^-5 M incubated for 48 hrs by sulforhodamine B assay relative to control
[13] = system: OVCAR-3; test: Growth inhibition of human OVCAR3 cells at 10^-5 M incubated for 48 hrs by sulforhodamine B assay relative to control
[14] = system: MCF7; test: Growth inhibition of human MCF7 cells at 10^-5 M incubated for 48 hrs by sulforhodamine B assay relative to control
[15] = system: HCT-116; test: Growth inhibition of human HCT116 cells at 10^-5 M incubated for 48 hrs by sulforhodamine B assay relative to control
[16] = system: HCC 2998; test: Growth inhibition of human HCC2998 cells at 10^-5 M incubated for 48 hrs by sulforhodamine B assay relative to control
[17] = system: Candida albicans; test: Antifungal activity against Candida albicans after 24 hrs by serial dilution method
[18] = system: K562; test: Growth inhibition of human K562 cells at 10^-5 M incubated for 48 hrs by sulforhodamine B assay relative to control
[19] = system: CAKI-1; test: Growth inhibition of human Caki1 cells at 10^-5 M incubated for 48 hrs by sulforhodamine B assay relative to control
[20] = system: HCT-15; test: Growth inhibition of human HCT15 cells at 10^-5 M incubated for 48 hrs by sulforhodamine B assay relative to control
[21] = system: SK-MEL-28; test: Growth inhibition of human SK-MEL-28 cells at 10^-5 M incubated for 48 hrs by sulforhodamine B assay relative to control
[22] = system: SF-268; test: Growth inhibition of human SF268 cells at 10^-5 M incubated for 48 hrs by sulforhodamine B assay relative to control
[23] = system: COLO 205; test: Growth inhibition of human COLO205 cells at 10^-5 M incubated for 48 hrs by sulforhodamine B assay relative to control
[24] = system: U-251; test: Growth inhibition of human U251 cells at 10^-5 M incubated for 48 hrs by sulforhodamine B assay relative to control
[25] = system: Candida albicans; test: Antifungal activity against Candida albicans at 100 ug/ml by disc diffusion method; conditions: read-out: IZ
[26] = system: SK-MEL-2; test: Growth inhibition of human SK-MEL-2 cells at 10^-5 M incubated for 48 hrs by sulforhodamine B assay relative to control
[27] = system: MDA-MB-435; test: Growth inhibition of human MDA-MB-435 cells at 10^-5 M incubated for 48 hrs by sulforhodamine B assay relative to control
[28] = system: M14; test: Growth inhibition of human M14 cells at 10^-5 M incubated for 48 hrs by sulforhodamine B assay relative to control
[29] = system: UO-31; test: Growth inhibition of human UO31 cells at 10^-5 M incubated for 48 hrs by sulforhodamine B assay relative to control
[30] = system: Aspergillus fumigatus; test: Antifungal activity against Aspergillus fumigatus after 24 hrs by serial dilution method
[31] = system: UACC-257; test: Growth inhibition of human UACC257 cells at 10^-5 M incubated for 48 hrs by sulforhodamine B assay relative to control
[32] = system: NCI-H522; test: Growth inhibition of human NCI-H522 cells at 10^-5 M incubated for 48 hrs by sulforhodamine B assay relative to control
[33] = system: DU-145; test: Growth inhibition of human DU145 cells at 10^-5 M incubated for 48 hrs by sulforhodamine B assay relative to control
[34] = system: NCI-H226; test: Growth inhibition of human NCI-H226 cells at 10^-5 M incubated for 48 hrs by sulforhodamine B assay relative to control
[35] = system: SW-620; test: Growth inhibition of human SW620 cells at 10^-5 M incubated for 48 hrs by sulforhodamine B assay relative to control
[36] = system: NCI/ADR-RES; test: Growth inhibition of human NCI-ADR-RES cells at 10^-5 M incubated for 48 hrs by sulforhodamine B assay relative to control
[37] = system: SR; test: Growth inhibition of human SR cells at 10^-5 M incubated for 48 hrs by sulforhodamine B assay relative to control
[38] = system: NCI-H23; test: Growth inhibition of human NCI-H23 cells at 10^-5 M incubated for 48 hrs by sulforhodamine B assay relative to control
[39] = system: HL-60(TB); test: Growth inhibition of human HL-60(TB) cells at 10^-5 M incubated for 48 hrs by sulforhodamine B assay relative to control
[40] = system: IGROV-1; test: Growth inhibition of human IGROV1 cells at 10^-5 M incubated for 48 hrs by sulforhodamine B assay relative to control
[41] = system: BT-549; test: Growth inhibition of human BT549 cells at 10^-5 M incubated for 48 hrs by sulforhodamine B assay relative to control
[42] = system: RXF 393; test: Growth inhibition of human RXF393 cells at 10^-5 M incubated for 48 hrs by sulforhodamine B assay relative to control
[43] = system: A549; test: Growth inhibition of human A549/ATCC cells at 10^-5 M incubated for 48 hrs by sulforhodamine B assay relative to control
[44] = system: T47D; test: Growth inhibition of human T47D cells at 10^-5 M incubated for 48 hrs by sulforhodamine B assay relative to control

With `Clc1nc2ccc(Br)cc2cc1Cn1nnnc1Cc1ccccc1` the “growth inhibition (GI)” value [1] was “Active”, the “growth inhibition (GI)” value [2] was “Active” and the “growth inhibition (GI)” value [3] was “Active”. The “growth inhibition (GI)” value [4] was “Active”, the “growth inhibition (GI)” value [5] was “Active” and the “growth inhibition (GI)” value [6] was “Active”. The “growth inhibition (GI)” value [7] was “Active”, the “growth inhibition (GI)” value [8] was “Active” and the “growth inhibition (GI)” value [9] was “Active”. For the same compound, the “growth inhibition (GI)” value [10] was “Active”, the “growth inhibition (GI)” value [11] was “Active” and the “growth inhibition (GI)” value [12] was “Active”. The “growth inhibition (GI)” value [13] was “Active”, the “growth inhibition (GI)” value [14] was “Active” and the “growth inhibition (GI)” value [15] was “Active”. For the same compound, the “growth inhibition (GI)” value [16] was “Active”, the MIC [17] was 10 mg/L (≈ 24.1 µM) and the “growth inhibition (GI)” value [18] was “Active”. For the same compound, the “growth inhibition (GI)” value [19] was “Active”, the “growth inhibition (GI)” value [20] was “Active” and the “growth inhibition (GI)” value [21] was “Active”. For the same compound, the “growth inhibition (GI)” value [22] was “Active”, the “growth inhibition (GI)” value [23] was “Active” and the “growth inhibition (GI)” value [24] was “Active”. For the same compound, the zone of inhibition at 100 µg/mL [25] was 16 mm, the “growth inhibition (GI)” value [26] was “Active” and the “growth inhibition (GI)” value [27] was “Active”. For the same compound, the “growth inhibition (GI)” value [28] was “Active”, the “growth inhibition (GI)” value [29] was “Active” and the MIC [30] was 10 mg/L (≈ 24.1 µM). The “growth inhibition (GI)” value [31] was “Active”, the “growth inhibition (GI)” value [32] was “Active” and the “growth inhibition (GI)” value [33] was “Active”. The “growth inhibition (GI)” value [34] was “Active”, the “growth inhibition (GI)” value [35] was “Active” and the “growth inhibition (GI)” value [36] was “Active”. The “growth inhibition (GI)” value [37] was “Active”, the “growth inhibition (GI)” value [38] was “Active” and the “growth inhibition (GI)” value [39] was “Active”. For the same compound, the “growth inhibition (GI)” value [40] was “Active”, the “growth inhibition (GI)” value [41] was “Active” and the “growth inhibition (GI)” value [42] was “Active”. The “growth inhibition (GI)” value [43] was “Active” and the “growth inhibition (GI)” value [44] was “Active”.
For `Fc1ccc2nc(Cl)c(Cn3nnnc3Cc3ccccc3)cc2c1`, the “growth inhibition (GI)” value [1] was “Active”, the “growth inhibition (GI)” value [2] was “Active” and the “growth inhibition (GI)” value [3] was “Active”. The “growth inhibition (GI)” value [4] was “Active”, the “growth inhibition (GI)” value [5] was “Active” and the “growth inhibition (GI)” value [6] was “Active”. For the same compound, the “growth inhibition (GI)” value [7] was “Active”, the “growth inhibition (GI)” value [8] was “Active” and the “growth inhibition (GI)” value [9] was “Active”. For the same compound, the “growth inhibition (GI)” value [10] was “Active”, the “growth inhibition (GI)” value [11] was “Active” and the “growth inhibition (GI)” value [12] was “Active”. The “growth inhibition (GI)” value [13] was “Active”, the “growth inhibition (GI)” value [14] was “Active” and the “growth inhibition (GI)” value [15] was “Active”. For the same compound, the “growth inhibition (GI)” value [16] was “Active”, the MIC [17] was 25 mg/L (≈ 70.7 µM) and the “growth inhibition (GI)” value [18] was “Active”. For the same compound, the “growth inhibition (GI)” value [19] was “Active”, the “growth inhibition (GI)” value [20] was “Active” and the “growth inhibition (GI)” value [21] was “Active”. The “growth inhibition (GI)” value [22] was “Active”, the “growth inhibition (GI)” value [23] was “Active” and the “growth inhibition (GI)” value [24] was “Active”. For the same compound, the zone of inhibition at 100 µg/mL [25] was 13 mm, the “growth inhibition (GI)” value [26] was “Active” and the “growth inhibition (GI)” value [27] was “Active”. For the same compound, the “growth inhibition (GI)” value [28] was “Active”, the “growth inhibition (GI)” value [29] was “Active” and the MIC [30] was 10 mg/L (≈ 28.3 µM). For the same compound, the “growth inhibition (GI)” value [31] was “Active”, the “growth inhibition (GI)” value [32] was “Active” and the “growth inhibition (GI)” value [33] was “Active”. The “growth inhibition (GI)” value [34] was “Active”, the “growth inhibition (GI)” value [35] was “Active” and the “growth inhibition (GI)” value [36] was “Active”. For the same compound, the “growth inhibition (GI)” value [37] was “Active”, the “growth inhibition (GI)” value [38] was “Active” and the “growth inhibition (GI)” value [39] was “Active”. The “growth inhibition (GI)” value [40] was “Active”, the “growth inhibition (GI)” value [41] was “Active” and the “growth inhibition (GI)” value [42] was “Active”. The “growth inhibition (GI)” value [43] was “Active” and the “growth inhibition (GI)” value [44] was “Active”.
For `Fc1ccc2nc(Cl)c(Cn3nnnc3CSc3ccccc3)cc2c1`, the “growth inhibition (GI)” value [1] was “Active”, the “growth inhibition (GI)” value [2] was “Active” and the “growth inhibition (GI)” value [3] was “Active”. For the same compound, the “growth inhibition (GI)” value [4] was “Active”, the “growth inhibition (GI)” value [5] was “Active” and the “growth inhibition (GI)” value [6] was “Active”. For the same compound, the “growth inhibition (GI)” value [7] was “Active”, the “growth inhibition (GI)” value [8] was “Active” and the “growth inhibition (GI)” value [9] was “Active”. For the same compound, the “growth inhibition (GI)” value [10] was “Active”, the “growth inhibition (GI)” value [11] was “Active” and the “growth inhibition (GI)” value [12] was “Active”. For the same compound, the “growth inhibition (GI)” value [13] was “Active”, the “growth inhibition (GI)” value [14] was “Active” and the “growth inhibition (GI)” value [15] was “Active”. For the same compound, the “growth inhibition (GI)” value [16] was “Active”, the MIC [17] was 50 mg/L (≈ 130 µM) and the “growth inhibition (GI)” value [18] was “Active”. The “growth inhibition (GI)” value [19] was “Active”, the “growth inhibition (GI)” value [20] was “Active” and the “growth inhibition (GI)” value [21] was “Active”. For the same compound, the “growth inhibition (GI)” value [22] was “Active”, the “growth inhibition (GI)” value [23] was “Active” and the “growth inhibition (GI)” value [24] was “Active”. The zone of inhibition at 100 µg/mL [25] was 13 mm, the “growth inhibition (GI)” value [26] was “Active” and the “growth inhibition (GI)” value [27] was “Active”. The “growth inhibition (GI)” value [28] was “Active”, the “growth inhibition (GI)” value [29] was “Active” and the MIC [30] was 2.5 mg/L (≈ 6.48 µM). For the same compound, the “growth inhibition (GI)” value [31] was “Active”, the “growth inhibition (GI)” value [32] was “Active” and the “growth inhibition (GI)” value [33] was “Active”. For the same compound, the “growth inhibition (GI)” value [34] was “Active”, the “growth inhibition (GI)” value [35] was “Active” and the “growth inhibition (GI)” value [36] was “Active”. The “growth inhibition (GI)” value [37] was “Active”, the “growth inhibition (GI)” value [38] was “Active” and the “growth inhibition (GI)” value [39] was “Active”. For the same compound, the “growth inhibition (GI)” value [40] was “Active”, the “growth inhibition (GI)” value [41] was “Active” and the “growth inhibition (GI)” value [42] was “Active”. For the same compound, the “growth inhibition (GI)” value [43] was “Active” and the “growth inhibition (GI)” value [44] was “Active”.
